Key:
Candida albicans = experiment: Growth inhibition of Candida albicans JRW#5; type: functional, organism-based
Erythrocyte = experiment: Hemolytic activity in human erythrocytes at 1 mM; type: functional
CHO [1] = experiment: Cytotoxicity against CHO cells at 1.0 mM after 3 days relative to control; type: cell-based, Cricetulus griseus; details: chinese hamster, 72 h, 1000 µM
CHO [2] = experiment: Cytotoxicity against CHO cells at 0.1 mM after 3 days relative to control; type: cell-based, Cricetulus griseus; details: chinese hamster, 72 h, 100 µM

Compound	IC50 (Candida albicans)	Activity (Erythrocyte)	Activity (CHO [1])	Activity (CHO [2])
C1C2CC3CC1CC(C[C@H]1OOC[C@H]4O[C@@H]14)(C2)C3	125 µM	–	–	–
C1CCC([C@@]23COOC[C@@H]2O3)CC1	500 µM	–	–	–
C[C@H]1OO[C@@H](COCc2ccccc2)[C@H]2O[C@H]21	63 µM	–	–	–
C1=C[C@@H](C23CC4CC(CC(C4)C2)C3)OOC1	31 µM	100%	–	–
C1C2CC3CC1CC(C[C@H]1OOC[C@@H]4O[C@@H]41)(C2)C3	125 µM	–	–	–
C1=C[C@@H](COCc2ccccc2)OO[C@H]1COCc1ccccc1	16 µM	2%	Active	–
C1C2CC3CC1CC([C@@H]1OO[C@H](C45CC6CC(CC(C6)C4)C5)[C@H]4O[C@H]41)(C2)C3	> 1000 µM	–	–	–
C1=C(C2CCCCC2)COOC1	63 µM	–	–	–
C1CC2OOC1C1OC21 (stereo not drawn)	16 µM	0%	Active	Active
CCCCCCC1=CCOOC1	250 µM	61%	–	–
CCCCCC[C@@]12COOC[C@@H]1O2	500 µM	31%	–	–
CCCCCCC[C@H]1OOC[C@@H]2O[C@@]21CCCCCC	> 1000 µM	–	–	–
C[C@@H]1C=C[C@H](CO)OO1	16 µM	0%	–	Active
CCCCCCC[C@@H]1C=CCOO1	63 µM	60%	–	–
CCCCCCC[C@H]1OOC[C@H]2O[C@@]12CCCCCC	> 1000 µM	–	–	–
C[C@@H]1C=C[C@H](COCc2ccccc2)OO1	250 µM	–	–	–
CCCCCCC[C@H]1OOCC=C1CCCCCC	250 µM	–	–	–
C[C@H]1OO[C@@H](COC(=O)C23CC4CC(CC(C4)C2)C3)[C@H]2O[C@H]21	125 µM	–	–	–
CCCCCCC[C@H]1OOC[C@H]2O[C@@H]12	63 µM	–	–	–
C[C@@H]1C=C[C@H](COC(=O)C23CC4CC(CC(C4)C2)C3)OO1	125 µM	–	–	–
C[C@H]1OO[C@@H](COC(=O)C23CC4CC(CC(C4)C2)C3)[C@@H]2O[C@@H]21	250 µM	–	–	–
C[C@@H]1C=C[C@H](CCCO)OO1	250 µM	–	–	–
C[C@@H]1C=C[C@H](COC(=O)CC23CC4CC(CC(C4)C2)C3)OO1	125 µM	–	–	–
C[C@H]1OO[C@@H](COC(=O)CC23CC4CC(CC(C4)C2)C3)[C@@H]2O[C@@H]21	> 1000 µM	–	–	–

Compound	IC50 (Candida albicans)	Activity (Erythrocyte)	Activity (CHO [1])	Activity (CHO [2])
c1ccc(COC[C@@H]2OO[C@H](COCc3ccccc3)[C@H]3O[C@H]32)cc1	250 µM	–	–	–
c1ccc(COC[C@@H]2OO[C@H](COCc3ccccc3)[C@@H]3O[C@@H]32)cc1	63 µM	1%	–	Active
CCCCCCC[C@H]1OO[C@@H](CCC)[C@H]2O[C@H]21	500 µM	25%	–	–
CCCCCCC[C@@H]1C=C[C@H](CCC)OO1	250 µM	86%	–	–
C1=C(C23CC4CC(CC(C4)C2)C3)COOC1	63 µM	–	–	–
C[C@H]1OO[C@@H](CCCO)[C@@H]2O[C@@H]21	> 1000 µM	–	–	–
C[C@H]1OO[C@@H](CO)[C@@H]2O[C@@H]21	> 1000 µM	–	–	–
C1=C[C@@H](CC23CC4CC(CC(C4)C2)C3)OOC1	125 µM	–	–	–
C1=C[C@H](C23CC4CC(CC(C4)C2)C3)OO[C@@H]1C12CC3CC(CC(C3)C1)C2	> 1000 µM	–	–	–
CCCCCCC[C@H]1OOC[C@@H]2O[C@@H]21	63 µM	33%	–	–
C1C2CC3CC1CC([C@@]14COOC[C@@H]1O4)(C2)C3	125 µM	–	–	–
C[C@H]1OO[C@@H](COC(=O)CC23CC4CC(CC(Br)(C4)C2)C3)[C@H]2O[C@H]21	> 1000 µM	–	–	–
C[C@@H]1C=C[C@H](COC(=O)CC23CC4CC(CC(Br)(C4)C2)C3)OO1	250 µM	–	–	–
C[C@H]1OO[C@@H](COC(=O)CC23CC4CC(CC(Br)(C4)C2)C3)[C@@H]2O[C@@H]21	> 1000 µM	–	–	–
C1C2CC3CC1CC([C@H]1OOC[C@@H]4O[C@@H]41)(C2)C3	31 µM	41%	–	–
C[C@H]1OO[C@@H](COC(=O)CC23CC4CC(CC(C4)C2)C3)[C@H]2O[C@H]21	250 µM	–	–	–
c1ccc([C@H]2OO[C@@H](c3ccccc3)[C@@H]3O[C@@H]32)cc1	500 µM	–	–	–
C1CCC(C[C@H]2OOC[C@@H]3O[C@@H]32)CC1	125 µM	–	–	–
CCCCCCC[C@H]1OO[C@@H](CCC)[C@@H]2O[C@@H]21	500 µM	45%	–	–
C1=C[C@@H](CC2CCCCC2)OOC1	125 µM	–	–	–
C1CCC(C[C@H]2OOC[C@H]3O[C@@H]23)CC1	125 µM	–	–	–
C1=C[C@H](c2ccccc2)OO[C@@H]1c1ccccc1	31 µM	–	Active	Active
C[C@H]1OO[C@@H](COCc2ccccc2)[C@@H]2O[C@@H]21 (single isomer, unassigned)	125 µM	–	–	–
C[C@@H]1[C@H](O)[C@@H](C)/C=C/C=C/C=C/C=C/C=C/C=C/C=C/[C@H](O[C@@H]2O[C@H](C)[C@@H](O)[C@H](N)[C@@H]2O)C[C@@H]2O[C@](O)(C[C@@H](O)C[C@@H](O)[C@H](O)CC[C@@H](O)C[C@@H](O)CC(=O)O[C@H]1C)C[C@H](O)[C@H]2C(=O)O [AMPHOTERICIN B]	< 0.5 µM	–	–	–

From ChEMBL document CHEMBL1144542, “Design of endoperoxides with anti-Candida activity” (Bioorg Med Chem, 2007)
